Assay results from patent US20210378193A1, “HAPLOID EMBRYOGENESIS” (STICHTING WAGENINGEN RESEARCH, priority 2013, published 2021).

Test system: B. napus DH 12075 microspore-derived embryos
Assay: conversion of microspore-derived embryos to seedlings (roots, shoots)
Type: cell-based, Brassica napus
Settings: embryos transferred to regeneration medium
From the text: All of the embryos that produced roots, except for the short embryo type, initiated root development from the root meristem, as evidenced by the development of roots within a few days of growth on germination medium.
In FIG. 12B, different types of embryos derived from different populations of microspores/pollen treated with DMSO (control) or different concentrations of HDACi were transferred to a regeneration medium and evaluated for their ability to produce shoots (a measure of conversion).

Question: Which “germination (ability to produce shoots, a measure of conversion) compared to the control” value does the source give for `O=C(CCCCCCC(=O)Nc1ccccc1)NO` [SAHA, suberoylanilide hydroxamic acid] here?
Answer: improved
